Measurements reported in patent US20240239808A1 (Forma Therapeutics, Inc., priority 2021, published 2024).

Target: T1, USP1, construct USP1 (1-785, GG670, 671AA)/UAF1 (1-677)-Flag (Homo sapiens, UniProt O94782, G670A/G671A)
T1 construct: USP1, construct USP1 (1-785, GG670, 671AA)/UAF1 (1-677)-Flag; Viva; purchased Viva
Test: Ubiquitin-Rhodamine 110 assay for USP1 activity
Type: biochemical
Details: enzyme 25 pM, Ub-Rh110 25 nM, 30 minutes preincubation, 8- or 10-point dilution
Experimental: Example A: Ubitquin-Rhodamine 110 Assay for USP1 Activity
The HTS assay was performed in a final volume of 20 μL in assay buffer containing 20 mM Tris-HCl (pH 8.0, (1M Tris-HCl, pH 8.0 solution; Corning 46-031-CM)), 2 mM CaCl2) (1M Calcium Chloride solution; Sigma #21114) 1 mM GSH (L-Glutathione reduced; Sigma #G4251), 0.01% Prionex ([…] filtered, Sigma #G-0411), and 0.01% Triton X-100. Stock compound solutions were stored at −20° C. as 10 mM in DMSO. Up to 1 month prior to the assay, 2 mM test compounds were pre-dispensed into assay plates (Black, low volume; Corning #3820) and frozen at −20° C. Pre-stamped assay plates were allowed to come to room temperature on the day of the assay. For the screen, 100 nL of 2 mM was pre-dispensed for a final screening concentration of 10 μM (DMSO(fc)=0.5%). The final concentration of the enzyme (USP1, construct USP1 (1-785, GG670, 671AA)/UAF1 (1-677)-Flag; Viva) in the assay was 100 pM. Final substrate (Ub-Rh110; Ubiquitin-Rhodamine 110, R&D Systems #U-555) concentration was 25 nM with [Ub-Rh110]<<Km. 10 μL of 2× enzyme was added to assay plates (pre-stamped with compound) either simultaneously with 2×Ub-Rh110 or preincubated with USP1 40 minutes prior to the addition of 10 μL of 2×Ub-Rh110 to compound plates. Plates were incubated stacked for 45 minutes at room temperature before fluorescence was read on the Envision (Excitation at 485 nm and Emission at 535 nm; Perkin Elmer) or on the PheraSTAR (Excitation at 485 nm and Emission at 535 nm; BMG Labtech).
Nanoliter quantities of either an 8-point or 10-point, 3-fold serial dilution in DMSO were pre-dispensed into assay plates (Perkin Elmer, ProxiPlate-384 F Plus, #6008269) for a final test concentration range of either 25 μM to 11 nM or 25 μM to 1.3 nM, respectively. The final concentration of the enzyme (USP1, construct USP1 (1-785, GG670, 671AA)/UAF1 (1-677)-Flag; Viva) in the assay was 25 pM. Final substrate (Ub-Rh110; Ubiquitin-Rhodamine 110, R&D Systems #U-555) concentration was 25 nM with [Ub-Rh110]<<Km. 5 μL of 2× enzyme was added to assay plates (pre-stamped with compound) preincubated with USP1 for 30 minutes and then 5 μL of 2×Ub-Rh110 was added to assay plates. Plates were incubated stacked for 20 minutes at room temperature before 5 μL of stop solution (final concentration of 10 mM citric acid in assay buffer (Sigma, #251275-500G)). Fluorescence was read on the Envision (Excitation at 485 nm and Emission at 535 nm; Perkin Elmer) or on the PheraSTAR (Excitation at 485 nm and Emission at 535 nm; BMG Labtech).
For both assay formats data were reported as percent inhibition compared with control wells based on the following equation: % inh=[1−((FLU−AveLow)/(AveHigh−AveLow))]×100 where FLU=measured Fluorescence, AveLow=average Fluorescence of no enzyme control (n=16), and AveHigh=average Fluorescence of DMSO control (n=16). IC50 values were determined by curve fitting of the standard 4 parameter logistic fitting algorithm included in the Activity Base software package: IDBS XE Designer Model205. Data is fitted using the Levenburg Marquardt algorithm.

T1 sequence (O94782 whole entry G670A/G671A): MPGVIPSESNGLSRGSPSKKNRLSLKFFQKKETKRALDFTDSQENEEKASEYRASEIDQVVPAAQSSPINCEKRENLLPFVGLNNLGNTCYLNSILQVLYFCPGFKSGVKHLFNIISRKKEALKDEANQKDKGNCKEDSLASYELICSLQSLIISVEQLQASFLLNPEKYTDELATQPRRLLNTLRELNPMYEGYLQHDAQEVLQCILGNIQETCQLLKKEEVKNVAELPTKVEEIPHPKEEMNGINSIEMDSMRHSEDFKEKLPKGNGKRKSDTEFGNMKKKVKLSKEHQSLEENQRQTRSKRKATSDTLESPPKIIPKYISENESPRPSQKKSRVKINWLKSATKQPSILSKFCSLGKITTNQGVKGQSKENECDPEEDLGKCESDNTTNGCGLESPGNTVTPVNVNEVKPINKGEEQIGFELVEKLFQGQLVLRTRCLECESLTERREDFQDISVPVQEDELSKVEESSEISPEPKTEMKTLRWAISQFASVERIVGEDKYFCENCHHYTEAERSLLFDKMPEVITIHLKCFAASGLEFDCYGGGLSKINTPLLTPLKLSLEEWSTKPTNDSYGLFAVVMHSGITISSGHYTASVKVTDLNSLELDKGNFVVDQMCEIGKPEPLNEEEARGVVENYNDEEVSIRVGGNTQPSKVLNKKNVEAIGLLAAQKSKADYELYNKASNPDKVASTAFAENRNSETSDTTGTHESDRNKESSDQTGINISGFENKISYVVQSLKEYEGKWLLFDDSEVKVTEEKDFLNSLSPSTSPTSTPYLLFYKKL
T1 sequence (Q8TAF3 whole entry partner): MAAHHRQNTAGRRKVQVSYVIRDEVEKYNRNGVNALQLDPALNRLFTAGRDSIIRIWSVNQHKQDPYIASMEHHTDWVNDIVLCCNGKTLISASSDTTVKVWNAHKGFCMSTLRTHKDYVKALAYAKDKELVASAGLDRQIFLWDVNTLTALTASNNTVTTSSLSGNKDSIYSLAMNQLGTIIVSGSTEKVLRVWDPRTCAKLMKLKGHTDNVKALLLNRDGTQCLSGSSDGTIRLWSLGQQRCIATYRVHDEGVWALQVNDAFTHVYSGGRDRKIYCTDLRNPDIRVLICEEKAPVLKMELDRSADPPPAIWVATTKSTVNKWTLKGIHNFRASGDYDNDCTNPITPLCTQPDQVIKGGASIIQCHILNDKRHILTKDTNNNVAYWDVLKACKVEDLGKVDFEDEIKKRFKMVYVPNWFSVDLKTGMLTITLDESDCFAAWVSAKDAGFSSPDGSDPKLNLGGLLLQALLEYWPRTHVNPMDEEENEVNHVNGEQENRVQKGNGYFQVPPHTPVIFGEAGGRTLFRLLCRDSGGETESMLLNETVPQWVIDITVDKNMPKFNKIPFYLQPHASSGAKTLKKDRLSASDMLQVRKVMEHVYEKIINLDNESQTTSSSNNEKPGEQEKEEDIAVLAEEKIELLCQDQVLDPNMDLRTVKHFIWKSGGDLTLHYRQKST

`CC(C)c1ccccc1-c1ncc2sc(=O)n(Cc3ccc(-c4nc(C(F)(F)F)cn4C)cc3)c2n1` [Example I-1, 5-(2-isopropylphenyl)-3-(4-(1-methyl-4-(trifluoromethyl)-1H-imidazol-2-yl)benzyl)thiazolo[4,5-d]pyrimidin-2(3H)-one] and `CC(C)c1ccccc1-c1ncc2oc(=O)n(Cc3ccc(-c4nc(C(F)(F)F)cn4C)cc3)c2n1` [Example I-12, 5-(2-isopropylphenyl)-3-(4-(1-methyl-4-(trifluoromethyl)-1H-imidazol-2-yl)benzyl)oxazolo[4,5-d]pyrimidin-2(3H)-one] cannot be ordered by IC50: at most 10 nM for the first, at most 10 nM for the second.

`CC(C)c1ncccc1-c1ncc2c(n1)N(Cc1ccc(-c3nc(C(F)(F)F)cn3C)cc1)CCO2` [Example I-2, 3-[8-([4-[1-methyl-4-(trifluoromethyl)-1H-imidazol-2-yl]phenyl]methyl)-6H,7H,8H-pyrimido[5,4-b][1,4]oxazin-2-yl]-2-(propan-2-yl)pyridine] and `CC(C)c1ncccc1-c1ncc2c(n1)N(Cc1ccc(-c3nc(C(F)(F)F)cn3C)cc1)C(=O)CO2` [Example I-4, 8-([4-[1-methyl-4-(trifluoromethyl)-1H-imidazol-2-yl]phenyl]methyl)-2-[2-(propan-2-yl)pyridin-3-yl]-6H,7H,8H-pyrimido[5,4-b][1,4]oxazin-7-one] cannot be ordered by IC50: at most 10 nM for the first, 10 to 100 nM for the second.

`CC(C)c1ncccc1-c1ncc2c(n1)N(Cc1ccc(-c3nc(C(F)(F)F)cn3C)cc1)C(=O)C(C)(C)O2` [Example I-5, 6,6-dimethyl-8-([4-[1-methyl-4-(trifluoromethyl)-1H-imidazol-2-yl]phenyl]methyl)-2-[2-(propan-2-yl)pyridin-3-yl]-6H,7H,8H-pyrimido[5,4-b][1,4]oxazin-7-one] and `CC(C)c1ncccc1-c1ncc2c(n1)N(Cc1ccc(-c3nc(C(F)(F)F)cn3C)cc1)C(=O)C21CC1` [Example I-11, 3′-([4-[1-methyl-4-(trifluoromethyl)-1H-imidazol-2-yl]phenyl]methyl)-5′-[2-(propan-2-yl)pyridin-3-yl]-2′,3′-dihydrospiro[cyclopropane-1,1′-pyrrolo[2,3-d]pyrimidine]-2′-one] fall in the same range of IC50: 10 to 100 nM for the first, 10 to 100 nM for the second.

`CC(C)c1ccccc1-c1ncc2c(n1)N(Cc1ccc(-c3nc(C(F)(F)F)cn3C)cc1)C(=O)N(C)C2` [Example I-6, 3-methyl-1-([4-[1-methyl-4-(trifluoromethyl)-1H-imidazol-2-yl]phenyl]methyl)-7-[2-(propan-2-yl)phenyl]-1H,2H,3H,4H-[1,3]diazino[4,5-d]pyrimidin-2-one] and `CC(C)c1ccccc1-c1ncc2c(n1)N(Cc1ccc(-c3nc(C(F)(F)F)cn3C)cc1)C(=O)C2` [Example I-18, 7-([4-[1-methyl-4-(trifluoromethyl)-1H-imidazol-2-yl]phenyl]methyl)-2-[2-(propan-2-yl)phenyl]-5H,6H,7H-pyrrolo[2,3-d]pyrimidin-6-one] cannot be ordered by IC50: 10 to 100 nM for the first, at most 10 nM for the second.

`CC(C)c1ccccc1-c1ncc2c(n1)N(Cc1ccc(-c3nc(C(F)(F)F)cn3C)cc1)C(=O)OC2` [Example I-7, 1-([4-[1-methyl-4-(trifluoromethyl)-1H-imidazol-2-yl]phenyl]methyl)-7-[2-(propan-2-yl)phenyl]-1H,2H, 4H-pyrimido[4,5-d][1,3]oxazin-2-one] and `CC(C)c1ncccc1-c1ncc2c(n1)N(Cc1ccc(-c3nc(C(F)(F)F)cn3C)cc1)C(=O)OC2` [Example I-8, 1-([4-[1-methyl-4-(trifluoromethyl)-1H-imidazol-2-yl]phenyl]methyl)-7-[2-(propan-2-yl)pyridin-3-yl]-1H,2H, 4H-pyrimido[4,5-d][1,3]oxazin-2-one] cannot be ordered by IC50: at most 10 nM for the first, 10 to 100 nM for the second.

`CC(C)c1ncccc1-c1ncc2ccn(Cc3ccc(-c4nc(C(F)(F)F)cn4C)cc3)c2n1` [Example I-9, 3-[7-([4-[1-methyl-4-(trifluoromethyl)-1H-imidazol-2-yl]phenyl]methyl)-7H-pyrrolo[2,3-d]pyrimidin-2-yl]-2-(propan-2-yl)pyridine] and `CC(C)c1ncccc1-c1ncc2cnn(Cc3ccc(-c4nc(C(F)(F)F)cn4C)cc3)c2n1` [Example I-10, 3-[1-([4-[1-methyl-4-(trifluoromethyl)-1H-imidazol-2-yl]phenyl]methyl)-1H-pyrazolo[3,4-d]pyrimidin-6-yl]-2-(propan-2-yl)pyridine] cannot be ordered by IC50: at most 10 nM for the first, 10 to 100 nM for the second.

`CC(C)c1ncccc1-c1ncc2oc(=O)n(Cc3ccc(-c4nc(C(F)(F)F)cn4C)cc3)c2n1` [Example I-13] and `COc1nc2cnc(-c3cccnc3C(C)C)nc2n1Cc1ccc(-c2nc(C(F)(F)F)cn2C)cc1` [Example I-17, 8-methoxy-9-([4-[1-methyl-4-(trifluoromethyl)-1H-imidazol-2-yl]phenyl]methyl)-2-[2-(propan-2-yl)pyridin-3-yl]-9H-purine] fall in the same range of IC50: 100 to 1000 nM for the first, 100 to 1000 nM for the second.

`CC(C)c1ccccc1-c1ncc2nc(C3CNC3)n(Cc3ccc(-n4cccn4)cc3)c2n1` [Example I-14, 8-(azetidin-3-yl)-2-[2-(propan-2-yl)phenyl]-9-[[4-(1H-pyrazol-1-yl)phenyl]methyl]-9H-purine] and `CC(C)c1ccccc1-c1ncc2nc(C3COC3)n(Cc3ccc(-n4cccn4)cc3)c2n1` [Example I-15, 8-(oxetan-3-yl)-2-[2-(propan-2-yl)phenyl]-9-[[4-(1H-pyrazol-1-yl)phenyl]methyl]-9H-purine] fall in the same range of IC50: 100 to 1000 nM for the first, 100 to 1000 nM for the second.

`CC(C)c1ncccc1-c1ncc2c(n1)N(Cc1ccc(-c3nc(C(F)(F)F)cn3C)cc1)C(=O)C2` [Example I-16, 7-([4-[1-methyl-4-(trifluoromethyl)-1H-imidazol-2-yl]phenyl]methyl)-2-[2-(propan-2-yl)pyridin-3-yl]-5H,6H,7H-pyrrolo[2,3-d]pyrimidin-6-one] and `CC(C)c1ncccc1-c1ncc2c(n1)N(Cc1ccc(-c3nc(C(F)(F)F)cn3C)cc1)C(=O)CC2` [Example I-20, 8-([4-[1-methyl-4-(trifluoromethyl)-1H-imidazol-2-yl]phenyl]methyl)-2-[2-(propan-2-yl)pyridin-3-yl]-5H,6H,7H,8H-pyrido[2,3-d]pyrimidin-7-one] fall in the same range of IC50: 10 to 100 nM for the first, 10 to 100 nM for the second.

First: CC(C)c1ncccc1-c1ncc2c(n1)N(Cc1ccc(-c3nc(C(F)(F)F)cn3C3COC3)cc1)C(=O)C2 [Example I-19, 7-([4-[1-(oxetan-3-yl)-4-(trifluoromethyl)-1H-imidazol-2-yl]phenyl]methyl)-2-[2-(propan-2-yl)pyridin-3-yl]-5H,6H,7H-pyrrolo[2,3-d]pyrimidin-6-one]
Second: COc1ncnc(C2CC2)c1-c1ncc2sc(=O)n(Cc3ccc(-c4nc(C(F)(F)F)cn4C)cc3)c2n1 [Example I-22, 5-(4-cyclopropyl-6-methoxypyrimidin-5-yl)-3-(4-(1-methyl-4-(trifluoromethyl)-1H-imidazol-2-yl)benzyl)thiazolo[4,5-d]pyrimidin-2(3H)-one]
The IC50 of the first is higher: 100 to 1000 nM for the first, at most 10 nM for the second.

`COc1ncnc(C2CC2)c1-c1ncc2sc(=O)n(Cc3ccc(-n4nc(C(F)(F)F)cc4C)cc3)c2n1` [Example I-21, 5-(4-cyclopropyl-6-methoxypyrimidin-5-yl)-3-(4-(5-methyl-3-(trifluoromethyl)-1H-pyrazol-1-yl)benzyl)thiazolo[4,5-d]pyrimidin-2(3H)-one] showed an IC50 of at most 10 nM.
